Some test systems named below: CAKI-1; U-251; SK-MEL-5; LOX IMVI; SR; SK-MEL-2; Hs-578T; Malme-3M; PC-3; MDA-N; SF-295; HL-60; SF-539; HCT-15; HCT-116; SNB-19; NCI-H522; UO-31.
What all share (assay): inhibition of tumour cell growth, NCI panel, 48 h

The text below walks through data of ChEMBL document CHEMBL1201862, “PubChem BioAssay data set” (2004).

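Growth conditions: 96-well plates. Treatment: test compound, 48 hours, 5 concentrations. Analysis: linear interpolation between bracketing concentrations; unreached endpoints set to highest concentration. GI50 marks 50% less growth.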 Activity calls are given as the source filed them. Cut-off read from the data, not from the text of the source: active = GI50 up to about 1.1 µM and inactive = higher.

As to `COc1ccccc1/C=C/c1ccnc2ccccc12`, the GI50 was 14.6 µM (inactive) with CAKI-1; 11.9 µM (inactive) in the assay on U-251; 13.5 µM (inactive) in the assay on SK-MEL-5; 16.3 µM (inactive) with LOX IMVI; 12.8 µM (inactive) in the assay on SR; 16.4 µM (inactive) with SK-MEL-2. Besides, the GI50 was 14.7 µM (inactive) in the assay with Hs-578T; 11.7 µM (inactive) in the assay with Malme-3M; 14.3 µM (inactive) in the assay on PC-3; 11.6 µM (inactive) with MDA-N; 14.2 µM (inactive) with SF-295; 7.64 µM (inactive) with HL-60. Besides, the GI50 in the assay with SF-539 was 14.6 µM (inactive); in the assay with HCT-15 it was 12.3 µM; in the assay on HCT-116, 13.6 µM (inactive); in the assay on SNB-19, 14.3 µM (inactive).

On to `CCn1c(=O)c2c3ccc(OC)cc3[nH]c2c2ccc(OC)cc21`, for which the GI50 in the assay on CAKI-1 was 55.2 µM (inactive); in the assay with U-251, > 100 µM (inactive); with SK-MEL-5, 37.2 µM (inactive); with NCI-H522, 56.1 µM (inactive); in the assay on SR it was 70.5 µM (inactive); with Hs-578T, 40.7 µM (inactive). The GI50 in the assay with Malme-3M is 61 µM (inactive); in the assay with PC-3, 39.2 µM (inactive); in the assay on MDA-N it was 62.8 µM (inactive); in the assay on SF-295, 67.1 µM (inactive); in the assay with SF-539, 52.5 µM (inactive); in the assay with UO-31, 47.9 µM (inactive). Also, the figures for the GI50 with HCT-15, in the assay with HCT-116 and in the assay on SNB-19 were 41.2 µM, 30.2 µM (inactive) and > 100 µM (inactive), respectively.

Take `O=C(CC1C=CCS1(=O)=O)NCc1ccccc1` (stereo not given): the GI50 in the assay on CAKI-1, in the assay with U-251, in the assay on SK-MEL-5, with LOX IMVI, in the assay with NCI-H522 and in the assay on SR was > 100 µM (inactive) in each case. The GI50 with Hs-578T, in the assay on PC-3, with MDA-N, with SF-295, in the assay on HL-60 and in the assay with SF-539 was > 100 µM (inactive) throughout. In addition, the GI50 was > 100 µM (inactive) with UO-31, over 100 µM with HCT-15, > 100 µM (inactive) in the assay on HCT-116 and > 100 µM (inactive) in the assay on SNB-19.

Turning to `CCN(CC)CCN1C=CC(C)C(C(=O)O)C1C(N)=O` (stereo not given), the GI50 in the assay with CAKI-1, in the assay on U-251, in the assay on SK-MEL-5, in the assay on LOX IMVI, with NCI-H522 and in the assay on SR was > 100 µM (inactive) each time. Besides, the GI50 in the assay on SK-MEL-2, with Hs-578T, in the assay on PC-3, in the assay with MDA-N, with SF-295 and in the assay on HL-60 was > 100 µM (inactive) in each case. The GI50 in the assay on UO-31 is > 100 µM (inactive); in the assay on HCT-15 it was over 100 µM; with HCT-116 it was > 100 µM (inactive); in the assay with SNB-19, > 100 µM (inactive).

With `COc1ccc(N2C(=O)C3c4[nH]c5ccc(C)cc5c4C4CCC(C(C)(C)C)CC4C3C2=O)cc1` (stereo not given), the GI50 was 10.3 µM (inactive) with CAKI-1; 3.85 µM (inactive) in the assay with U-251; 20.7 µM (inactive) with SK-MEL-5; 25.6 µM (inactive) in the assay on NCI-H522; 11.6 µM (inactive) in the assay on SR; 3.64 µM (inactive) in the assay on Hs-578T. Moreover, the GI50 in the assay with PC-3 is 24.1 µM (inactive); in the assay with MDA-N, > 10 µM (inactive); in the assay on SF-295, 5.48 µM (inactive); in the assay with HL-60, 19.1 µM (inactive); in the assay with SF-539 it was 15.6 µM (inactive); in the assay with UO-31, 17.2 µM (inactive). Moreover, the GI50 in the assay on HCT-15 is 27.5 µM; in the assay with HCT-116 it was 7.66 µM (inactive); in the assay with SNB-19, 22.6 µM (inactive).

For the molecule `CN(C)CCNC(=O)c1cccc(CO)c1[N+](=O)[O-]`, the GI50 in the assay on CAKI-1, in the assay on U-251, in the assay on SK-MEL-5, in the assay on NCI-H522, with SR and in the assay on SK-MEL-2 was > 100 µM (inactive) in each case. The GI50 in the assay on Hs-578T, in the assay on Malme-3M, in the assay on PC-3, with MDA-N, in the assay with SF-295 and with HL-60 was > 100 µM (inactive) throughout. Besides, the GI50 with SF-539 was > 100 µM (inactive); in the assay with UO-31, > 100 µM (inactive); in the assay with HCT-15, over 100 µM; in the assay on HCT-116 it was > 100 µM (inactive); with SNB-19, > 100 µM (inactive).

As to `CC(=O)Nc1[nH]c(C#N)nc1C#N`, the GI50 in the assay with CAKI-1, in the assay with U-251, with SK-MEL-5, in the assay with LOX IMVI, with NCI-H522 and in the assay on SK-MEL-2 was > 100 µM (inactive) each time. For the same molecule, the GI50 in the assay with Hs-578T, in the assay on Malme-3M, in the assay with PC-3, in the assay on MDA-N, in the assay on SF-295 and in the assay on HL-60 was > 100 µM (inactive) in each case. Moreover, the GI50 in the assay with SF-539 was > 100 µM (inactive); with UO-31, > 100 µM (inactive); in the assay with HCT-15, over 100 µM; in the assay on HCT-116, > 100 µM (inactive); in the assay with SNB-19, > 100 µM (inactive).

Regarding `Cc1ccc2c3c(cnc2n1)C(=O)OCCN3C`, the GI50 in the assay with CAKI-1, in the assay with U-251, with SK-MEL-5, with LOX IMVI, in the assay on NCI-H522 and in the assay with SR was > 100 µM (inactive) in each case. The GI50 in the assay with SK-MEL-2, in the assay on Hs-578T, in the assay on PC-3, in the assay with MDA-N, in the assay with SF-295 and in the assay on HL-60 was > 100 µM (inactive) in each case. For the same molecule, the GI50 in the assay with SF-539 is > 100 µM (inactive); in the assay with UO-31 it was > 100 µM (inactive); with HCT-15, over 100 µM; with HCT-116 it was > 100 µM (inactive); in the assay on SNB-19 it was > 100 µM (inactive).

Turning to `CCOC(=O)c1nc2ccc(C(F)(F)F)cc2nc1Nc1cc(OC)c(OC)c(OC)c1`, the GI50 in the assay with SK-MEL-5, in the assay with LOX IMVI, with NCI-H522, in the assay with SR, with Hs-578T and in the assay with Malme-3M was > 100 µM (inactive) throughout. For the same molecule, the GI50 in the assay with PC-3, in the assay with MDA-N, with SF-295, in the assay on HL-60, with SF-539 and with UO-31 was > 100 µM (inactive) throughout. Besides, the GI50 in the assay with HCT-15 was over 100 µM; with HCT-116 it was > 100 µM (inactive); in the assay with SNB-19, > 100 µM (inactive).

Take `CC(=O)O[C@H]1C(=O)[C@@]2(C)[C@H]([C@H](OC(=O)c3ccccc3)[C@]3(O)C[C@H](OC(=O)[C@H](O)[C@@H](NC(=O)c4ccc(N(C)C)cc4)c4ccccc4)C(C)=C1C3(C)C)[C@]1(OC(C)=O)CO[C@@H]1C[C@@H]2O`: the GI50 with CAKI-1 is 0.339 µM (active); with U-251 it was < 0.005 µM (active); with SK-MEL-5 it was < 0.005 µM (active); in the assay with LOX IMVI it was < 0.005 µM (active); in the assay on NCI-H522, < 0.005 µM (active); with SR, < 0.005 µM (active). The GI50 in the assay with SK-MEL-2 was 0.05 µM (active); with Hs-578T, < 0.005 µM (active); with PC-3, < 0.005 µM (active); with MDA-N it was < 0.005 µM (active); in the assay with SF-295, 0.0119 µM (active); in the assay on HL-60, < 0.005 µM (active). The GI50 in the assay with SF-539 is < 0.005 µM (active); with UO-31, 1.54 µM (inactive); in the assay with HCT-15 it was 0.337 µM; with HCT-116 it was < 0.005 µM (active); with SNB-19 it was < 0.005 µM (active).

`O=C(O)c1ccccc1/N=N/c1c(O)c(S(=O)(=O)O)cc2cc(S(=O)(=O)O)ccc12`: the GI50 in the assay with CAKI-1, in the assay on U-251, in the assay with SK-MEL-5, in the assay on NCI-H522, in the assay with SR and with SK-MEL-2 was > 100 µM (inactive) throughout. The GI50 in the assay with Hs-578T, in the assay with Malme-3M, in the assay with PC-3, in the assay with MDA-N, with SF-295 and with HL-60 was > 100 µM (inactive) throughout. In addition, the GI50 in the assay with SF-539 is > 100 µM (inactive); with UO-31, > 100 µM (inactive); in the assay with HCT-15 it was over 100 µM; in the assay on HCT-116, > 100 µM (inactive); in the assay on SNB-19, > 100 µM (inactive).

For the molecule `O=C1Nc2ccccc2/C1=C\c1c(Cl)n(-c2ccccc2)c2ccccc12`, the GI50 is 2.49 µM (inactive) in the assay on CAKI-1; 3.48 µM (inactive) in the assay with U-251; 2.66 µM (inactive) in the assay on SK-MEL-5; 3.56 µM (inactive) in the assay on LOX IMVI; 2.96 µM (inactive) with SR; 8.69 µM (inactive) in the assay with SK-MEL-2. The GI50 in the assay on Hs-578T was 0.851 µM (active); with Malme-3M it was 2.07 µM (inactive); in the assay with PC-3, 3.78 µM (inactive); in the assay with MDA-N, 1.14 µM (inactive); with SF-295 it was 3.18 µM (inactive); in the assay on HL-60, 2.77 µM (inactive). In addition, the GI50 in the assay on SF-539 was 1.87 µM (inactive); in the assay on UO-31, 2.4 µM (inactive); in the assay on HCT-15 it was 2.49 µM; in the assay with HCT-116 it was 2.11 µM (inactive); with SNB-19, 2.99 µM (inactive).
